Assay results as given in ChEMBL document CHEMBL1201862, “PubChem BioAssay data set” (2004).
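Growth conditions: 96-well plates. Treatment: test compound, 48 hours, 5 concentrations. Analysis: linear interpolation between bracketing concentrations; unreached endpoints set to highest concentration. At the GI50, growth is halved.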 The source made the active and inactive calls. Rule as the data show it: active = GI50 up to about 1.1 µM and inactive = higher.

How the values were obtained:
Test in all cases: inhibition of tumour cell growth, NCI panel, 48 h
[1] = tested on: UO-31
[2] = tested on: SN12C
[3] = tested on: SK-MEL-28
[4] = tested on: RPMI-8226
[5] = tested on: U-251
[6] = tested on: MOLT-4
[7] = tested on: SNB-19
[8] = tested on: A498
[9] = tested on: IGROV-1
[10] = tested on: SW-620
[11] = tested on: SK-MEL-2
[12] = tested on: RXF 393
[13] = tested on: NCI-H522
[14] = tested on: HCT-116
[15] = tested on: SF-268
[16] = tested on: NCI-H226
[17] = tested on: DMS-273
[18] = tested on: HL-60
[19] = tested on: SK-OV-3
[20] = tested on: MDA-N

Measured: GI50

COc1ccc(/C=C2\CCC(C)(CN(C)C)C2=O)cc1OC (stereo not given)
inactive: [1] > 100 µM | [2] > 100 µM | [3] > 100 µM | [4] > 100 µM | [5] > 100 µM | [6] > 100 µM | [7] > 100 µM | [8] > 100 µM | [9] > 100 µM | [10] > 100 µM | [11] > 100 µM | [12] > 100 µM | [13] > 100 µM | [14] > 100 µM | [15] > 100 µM | [16] > 100 µM | [17] > 100 µM

CC(=O)Oc1cc2c(cc1OC(C)=O)C1(C)CCC2(C)c2cc(OC(C)=O)c(OC(C)=O)cc21
inactive: [1] 23.4 µM | [18] 4.13 µM | [2] 40.3 µM | [3] 21.4 µM | [4] 3.52 µM | [6] 8.2 µM | [7] 4.75 µM | [9] 26.7 µM | [19] 29.2 µM | [10] 7.73 µM | [11] 16.7 µM | [12] 40.7 µM | [13] 2.24 µM | [15] 19.2 µM | [17] 19.4 µM

CC(=O)OC1COC(N2C(=O)/C(=N\Nc3ccc([N+](=O)[O-])cc3)c3cc(Br)c([N+](=O)[O-])cc32)C(OC(C)=O)C1OC(C)=O (stereo not given)
inactive: [18] 65.6 µM | [2] > 100 µM | [3] > 100 µM | [4] > 100 µM | [5] 36.8 µM | [6] > 100 µM | [7] > 100 µM | [9] 26.2 µM | [19] 40.6 µM | [10] 46 µM | [11] > 100 µM | [12] 15.5 µM | [13] 24.1 µM | [14] 44.6 µM | [15] 26.4 µM | [16] > 100 µM | [17] 35.2 µM

COc1cccc(/C=C2\CCC(CCN(C)C)(C3=CCCC3)C2=O)c1 (stereo not given)
inactive: [1] 13.6 µM | [2] 14.9 µM | [3] 15.9 µM | [4] 11.7 µM | [5] 16.6 µM | [6] 13.9 µM | [7] 16.8 µM | [8] 15.7 µM | [9] 15.8 µM | [10] 13.9 µM | [11] 15.9 µM | [12] 8.73 µM | [13] 13.4 µM | [14] 13.8 µM | [15] 21.3 µM | [16] 17.1 µM | [17] 14.4 µM

CN(N=O)C(=O)N(N)CCCCC(NC(=O)OCc1ccccc1)C(=O)OCc1ccccc1 (stereo not given)
inactive: [1] 18.7 µM | [18] 5.25 µM | [2] 18.6 µM | [3] > 100 µM | [4] > 100 µM | [5] 38.9 µM | [6] 18.9 µM | [7] > 100 µM | [8] 69.7 µM | [9] 49.2 µM | [19] > 100 µM | [10] 65.9 µM | [11] 91.6 µM | [12] 12.9 µM | [13] 11.7 µM | [14] 29.8 µM | [16] 22.2 µM | [17] 32.2 µM

CC(C)N1CN(C(C(=O)N[C@@H]2C(=O)N3C2SC(C)(C)C3C(=O)O)c2ccccc2)CSC1=S (stereo not given in full)
inactive: [1] > 100 µM | [18] > 100 µM | [2] > 100 µM | [3] > 100 µM | [4] 69.5 µM | [5] > 100 µM | [6] > 100 µM | [7] > 100 µM | [8] > 100 µM | [9] > 100 µM | [19] > 100 µM | [11] > 100 µM | [13] 27.8 µM | [14] > 100 µM | [15] > 100 µM | [17] > 100 µM

C[P+](C)(CC(F)(F)F)c1ccccc1
inactive: [1] > 100 µM | [18] > 100 µM | [2] > 100 µM | [4] > 100 µM | [5] > 100 µM | [6] > 100 µM | [7] > 100 µM | [8] > 100 µM | [9] > 100 µM | [19] > 100 µM | [10] > 100 µM | [11] > 100 µM | [12] > 100 µM | [13] > 100 µM | [14] > 100 µM | [16] > 100 µM | [17] > 100 µM

CNC(=O)CN(CC(=O)O)C(=O)NC
inactive: [1] > 100 µM | [18] > 100 µM | [4] > 100 µM | [5] > 100 µM | [6] > 100 µM | [7] > 100 µM | [8] > 100 µM | [9] > 100 µM | [19] > 100 µM | [10] > 100 µM | [11] > 100 µM | [12] > 100 µM | [13] > 100 µM | [15] > 100 µM | [17] > 100 µM

COc1ccc2n[se]nc2c1
inactive: [1] 59.3 µM | [18] > 100 µM | [2] > 100 µM | [3] > 100 µM | [4] > 100 µM | [5] > 100 µM | [6] > 100 µM | [7] 69.2 µM | [9] 38.9 µM | [19] 46.3 µM | [10] > 100 µM | [11] 41.5 µM | [12] 48.4 µM | [13] > 100 µM | [15] > 100 µM | [17] > 100 µM

COc1ccc(C2C(Cl)C(=O)N2n2cnc3ccccc3c2=O)cc1OC (stereo not given)
inactive: [1] 22.3 µM | [18] 57.7 µM | [2] > 100 µM | [3] 68.7 µM | [4] 81.1 µM | [5] > 100 µM | [6] 82.4 µM | [7] 52.4 µM | [9] 74.1 µM | [19] 76.4 µM | [10] > 100 µM | [11] > 100 µM | [12] 96.8 µM | [13] 57.9 µM | [14] 53 µM | [15] 85.7 µM | [16] 30.5 µM | [17] > 100 µM

OC(c1ccccc1)(c1ccccc1)c1cccnc1
inactive: [1] > 100 µM | [2] > 100 µM | [3] > 100 µM | [4] > 100 µM | [5] > 100 µM | [7] > 100 µM | [8] > 100 µM | [9] > 100 µM | [19] > 100 µM | [10] > 100 µM | [11] > 100 µM | [14] > 100 µM | [15] > 100 µM | [16] > 100 µM | [17] > 100 µM

CCN1c2nc3ccccc3nc2N(CC)c2nc3ccccc3nc21
inactive: [1] 96.6 µM | [18] 34.7 µM | [2] 47.1 µM | [3] 46.5 µM | [4] 34.5 µM | [5] 48 µM | [6] 41.8 µM | [7] > 100 µM | [8] 57.3 µM | [20] 57.8 µM | [9] 23.2 µM | [19] > 100 µM | [10] 30.7 µM | [11] > 100 µM | [12] 55.5 µM | [13] 49.5 µM | [14] 26.9 µM | [15] 32.1 µM | [16] 51.8 µM
